Data on 14 compounds can be found in US8546381B2, “Bridged heterocyclic compounds and methods of use” (Medivation Technologies, Inc., priority 2008, dated 2013).

Assay [1] concerns the target T1, human recombinant adrenergic α1D receptor (Homo sapiens, UniProt P25100).
T1 construct: expressed in transfected cells; host or cells: HEK-293 cells
T1 sequence (P25100 1-572): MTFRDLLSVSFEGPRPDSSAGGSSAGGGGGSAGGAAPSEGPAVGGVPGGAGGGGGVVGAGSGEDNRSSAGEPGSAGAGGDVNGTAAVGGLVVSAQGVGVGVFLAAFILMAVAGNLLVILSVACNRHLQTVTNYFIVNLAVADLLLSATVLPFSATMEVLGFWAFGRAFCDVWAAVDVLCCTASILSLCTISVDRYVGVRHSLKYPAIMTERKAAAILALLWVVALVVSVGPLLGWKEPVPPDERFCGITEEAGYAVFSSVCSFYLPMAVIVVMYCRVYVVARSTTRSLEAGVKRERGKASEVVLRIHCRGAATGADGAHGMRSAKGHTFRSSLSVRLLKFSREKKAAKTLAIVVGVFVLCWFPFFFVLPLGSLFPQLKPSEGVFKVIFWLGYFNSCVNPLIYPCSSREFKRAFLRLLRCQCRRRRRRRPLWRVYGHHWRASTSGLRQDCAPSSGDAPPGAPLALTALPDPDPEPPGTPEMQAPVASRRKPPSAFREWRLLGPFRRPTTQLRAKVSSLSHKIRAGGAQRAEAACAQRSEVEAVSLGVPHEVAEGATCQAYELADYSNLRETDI
Kind of assay: Adrenergic α1D radioligand binding ([3H]Prozosin). The note with it: for inhibition at 1 µM: read-out: Adrenergic α1D, inhibition of ligand binding (1 μM). Here is the method:
To evaluate in radioligand binding assays the activity of compounds of the invention, human recombinant adrenergic α1D receptor expressed in human embryonic kidney (HEK-293) cells (Kenny, B. A. et al. Br. J. Pharmacol. 115(6):981, 1995) in a 50 mM Tris-HCl buffer, pH 7.4, was used. Compounds of invention were incubated with 0.6 nM [^3H]Prozosin for 60 minutes at 25° C. Non-specific binding was estimated in the presence of 10 μM phentolamine. Receptor proteins were filtered and washed, the filters were then counted to determine [^3H]Prozosin specifically bound. Compounds were screened at 1 μM or lower, using 1% DMSO as vehicle. Biochemical assay results are presented as the percent inhibition of specific binding in Table 3.

In assay [2] the target is T2, human recombinant histamine H1 receptor (Homo sapiens, UniProt P35367).
T2 construct: expressed in transfected cells; host or cells: CHO cells
T2 sequence (P35367 whole entry): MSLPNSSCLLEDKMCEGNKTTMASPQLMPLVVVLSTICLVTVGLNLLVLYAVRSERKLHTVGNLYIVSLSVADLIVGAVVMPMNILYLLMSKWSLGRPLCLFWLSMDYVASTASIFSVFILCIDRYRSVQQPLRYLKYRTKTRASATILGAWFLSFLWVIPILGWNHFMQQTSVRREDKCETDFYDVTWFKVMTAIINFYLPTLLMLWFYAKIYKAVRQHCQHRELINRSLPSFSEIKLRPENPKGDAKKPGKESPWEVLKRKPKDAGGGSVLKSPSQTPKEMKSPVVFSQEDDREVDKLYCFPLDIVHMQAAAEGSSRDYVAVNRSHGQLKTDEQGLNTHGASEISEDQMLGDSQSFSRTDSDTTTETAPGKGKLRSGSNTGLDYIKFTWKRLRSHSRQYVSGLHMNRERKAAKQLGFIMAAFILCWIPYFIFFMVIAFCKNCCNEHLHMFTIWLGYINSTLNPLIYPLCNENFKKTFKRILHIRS
The experiment in a line: Histamine H1 radioligand binding ([3H]Pyrilamine). The settings on record: for inhibition at 1 µM: compound at 1 μM, inhibition of specific [3H]Pyrilamine binding, read-out: Histamine Binding (1 μM) H1, Percentage Inhibition. Here is the method: To evaluate in radioligand binding assays the activity of compounds of the invention, human recombinant histamine H1 receptor expressed in Chinese hamster ovary (CHO) cells (De Backer, M. D. et al., Biochem. Biophys. Res. Comm. 197(3):1601, 1993) in a modified Tris-HCl buffer (50 mM Tris-HCl, pH 7.4, 2 mM MgCl2, 100 mM NaCl, 250 mM Sucrose) was used. Compounds of the invention were incubated with 1.2 nM [^3H]Pyrilamine for 180 minutes at 25° C. Non-specific binding was estimated in the presence of 1 μM pyrilamine. Receptor proteins were filtered and washed, the filters were then counted to determine [^3H]Pyrilamine specifically bound. Compounds were screened at 1 μM or lower, using 1% DMSO as vehicle. Biochemical assay results are presented as the percent inhibition of specific binding in Table 2.

Assay [3] deals with T3, human recombinant serotonin (5-Hydroxytryptamine) 5-HT2A receptor (Homo sapiens, UniProt P28223).
T3 construct: expressed in transfected cells; host or cells: CHO-K1 cells
T3 sequence (P28223 whole entry): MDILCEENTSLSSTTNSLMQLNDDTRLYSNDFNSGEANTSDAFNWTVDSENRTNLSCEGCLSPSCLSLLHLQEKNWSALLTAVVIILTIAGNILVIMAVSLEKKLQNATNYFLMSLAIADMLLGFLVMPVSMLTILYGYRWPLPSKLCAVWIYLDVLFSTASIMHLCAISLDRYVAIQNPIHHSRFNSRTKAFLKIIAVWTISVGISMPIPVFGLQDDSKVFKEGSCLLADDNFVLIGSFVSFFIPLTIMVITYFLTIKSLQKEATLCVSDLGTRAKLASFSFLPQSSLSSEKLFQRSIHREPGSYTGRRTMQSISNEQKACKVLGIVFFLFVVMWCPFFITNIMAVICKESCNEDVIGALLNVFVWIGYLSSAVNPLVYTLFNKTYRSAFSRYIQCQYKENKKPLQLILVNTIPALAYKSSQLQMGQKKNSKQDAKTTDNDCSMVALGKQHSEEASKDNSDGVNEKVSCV
The experiment in a line: Serotonin 5-HT2A radioligand binding ([3H]Ketanserin). The settings on record: read-out: Serotonin 5-HT2A, inhibition of ligand binding (1 μM). Here is the method:
To evaluate in radioligand binding assays the activity of compounds of the invention, human recombinant serotonin (5-Hydroxytryptamine) 5-HT2A receptor expressed in Chinese hamster ovary (CHO-K1) cells (Bonhaus, D. W. et al. Br. J. Pharmacol. 115:622, 1995; Saucier, C. and Albert, P. R., J. Neurochem. 68:1998, 1997) in a 50 mM Tris-HCl buffer, pH 7.4, was used. Compounds of the invention were incubated with 0.5 nM [^3H]Ketanserin for 60 minutes at 25° C. Non-specific binding was estimated in the presence of 1 μM Mianserin. Receptor proteins were filtered and washed, the filters were then counted to determine [^3H]Ketanserin specifically bound. Compounds were screened at 1 μM or lower, using 1% DMSO as vehicle. Biochemical assay results are presented as the percent inhibition of specific binding in Table 4.

Assay [4] concerns the target T4, human recombinant adrenergic α2B receptor (Homo sapiens, UniProt P18089).
T4 construct: expressed in transfected cells; host or cells: CHO-K1 cells
T4 sequence (P18089 1-450): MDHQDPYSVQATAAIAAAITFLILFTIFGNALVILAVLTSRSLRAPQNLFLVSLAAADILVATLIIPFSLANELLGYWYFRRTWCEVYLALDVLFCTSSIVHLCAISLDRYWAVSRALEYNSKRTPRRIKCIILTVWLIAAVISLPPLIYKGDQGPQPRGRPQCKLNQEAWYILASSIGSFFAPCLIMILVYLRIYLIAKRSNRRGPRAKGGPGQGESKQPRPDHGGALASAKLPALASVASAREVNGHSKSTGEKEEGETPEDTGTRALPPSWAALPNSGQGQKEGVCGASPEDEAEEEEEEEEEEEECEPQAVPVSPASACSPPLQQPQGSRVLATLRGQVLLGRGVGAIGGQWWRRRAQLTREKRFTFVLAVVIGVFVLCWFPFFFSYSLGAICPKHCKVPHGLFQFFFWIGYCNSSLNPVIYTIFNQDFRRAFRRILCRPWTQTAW
Kind of assay: Adrenergic α2B radioligand binding ([3H]Rauwolscine). The note with it: for inhibition at 1 µM: read-out: Adrenergic α2B, inhibition of ligand binding (1 μM). Here is the method:
To evaluate in radioligand binding assays the activity of compounds of the invention, human recombinant adrenergic α2B receptor expressed in Chinese hamster ovary (CHO-K1) cells (Uhlen S et al. Eur J. Pharmacol. 343(1):93, 1998) in a modified Tris-HCl buffer (50 mM Tris-HCl, pH 7.4, 12.5 mM MgCl2, 1 mM EDTA, 0.2% BSA) was used. Compounds of the invention were incubated with 2.5 nM [^3H]Rauwolscine for 60 minutes at 25° C. Non-specific binding was estimated in the presence of 10 μM Prozosin. Receptor proteins were filtered and washed, the filters were then counted to determine [^3H]Rauwolscine specifically bound. Compounds were screened at 1 μM or lower, using 1% DMSO as vehicle. Biochemical assay results are presented as the percent inhibition of specific binding in Table 3.

Take `COc1ccc(/C(C)=C/n2c3c(c4cc(Cl)ccc42)C2CCC(C3)N2C)cc1F` (centres unmarked) [Compound 136]: the inhibition – broadly, the relative decrease from the control value, in per cent – at 1 µM in assay [1] was found to be 61%; in assay [2] it was 69%; in assay [3], 99%; in assay [4], 87%.
On the same counts, the results for `Cc1ccc2c(c1)c1c(n2CCc2cncc(Cl)c2)CC2CCC1N2C` (centres unmarked) [Compound 88] are 73%, 95%, 55% and 104%.
Consider `Cc1ccc2c(c1)c1c(n2CCc2ccccc2)CC2CCC1N2C` (centres unmarked) [Compound 2], for which, in assay [1] (0.03 μM, read-out: Adrenergic α1D, inhibition of ligand binding (0.03 μM)), the inhibition at 0.03 µM was 44%. Besides, the inhibition at 0.3 µM in assay [1] (0.3 μM, read-out: Adrenergic α1D, inhibition of ligand binding (0.3 μM)) stood at 85%. Moreover, the inhibition at 1 µM in assay [1] is 94%; in assay [2], 99%; in assay [3], 96%; in assay [4] it was 98%. Moreover, the inhibition at 0.01 µM in assay [2] (compound at 10.0 nM, read-out: Histamine Binding H1, Percentage Inhibition (10.0 nM)) stood at 42%; in assay [4] (10.0 nM, read-out: Adrenergic α2B, inhibition of ligand binding (10.0 nM)), 85%. The inhibition at 0.1 µM in assay [2] (compound at 0.1 μM, read-out: Histamine Binding H1, Percentage Inhibition (0.1 μM)) stood at 85%; in assay [4] (0.1 μM, read-out: Adrenergic α2B, inhibition of ligand binding (0.1 μM)) it was 108%.
In the case of `CN1C2CCC1c1c(n(CCC(=O)N3CCNC(=O)C3)c3ccc(Cl)cc13)C2` (centres unmarked) [Compound 3], the inhibition at 1 µM was 6% in assay [1], 12% in assay [2], 3% in assay [3] and -17% in assay [4].
Regarding `CN1[C@@H]2CC[C@H]1c1c(n(CC(C)(O)c3ccc(F)cc3)c3ccccc13)C2` (some centres unmarked) [Compound 99], the inhibition at 1 µM is 20% in assay [1], 21% in assay [2], 73% in assay [3] and 92% in assay [4].
On the same counts, the results for `CN1C2CCC1c1c(n(C#Cc3ccc(F)cc3)c3ccc(Cl)cc13)C2` (centres unmarked) [Compound 138] are 60%, 57%, 98% and 109%.
On the same counts, the results for `Cc1ccc2c(c1)c1c(n2CC(O)c2ccc(C)nc2)CC2CCC1N2C` (centres unmarked) [Compound 91] are 24%, 51%, 2% and 67%.
On the same counts, the results for `Cc1ccc(CCn2c3c(c4ccccc42)C2CCC(C3)N2C)cn1` (centres unmarked) [Compound 92] are 8%, 54%, 16% and 34%.
On to `Cc1ccc2c(c1)c1c(n2CCc2cccnc2)CC2CCC1N2C` (centres unmarked) [Compound 86], for which the inhibition at 1 µM in assay [1] amounted to 87%; in assay [2], 99%; in assay [3], 64%; in assay [4] it was 106%.
On the same counts, the results for `CC(=O)N1CCN(C(=O)CCn2c3c(c4cc(Cl)ccc42)C2CCC(C3)N2C)CC1` (centres unmarked) [Compound 8] are 8%, 16%, 1% and -9%.
Taken in the same sequence, the figures for `Cc1ccc2c(c1)c1c(n2C#Cc2ccc(F)cc2)CC2CCC1N2C` (centres unmarked) [Compound 141] were 20%, 2%, 93% and 95%.
Taken in the same sequence, the figures for `CN1C2CCC1c1c(n(CCC(N)=O)c3ccc(Cl)cc13)C2` (centres unmarked) [Compound 73] were 19%, 10%, -9% and 73%.
For `Cc1cncc(CCn2c3c(c4cc(Cl)ccc42)C2CCC(C3)N2C)c1` (centres unmarked) [Compound 89], the inhibition at 1 µM in assay [1] was found to be 44%; in assay [2], 92%; in assay [3], 27%; in assay [4], 76%.
On the same counts, the results for `COc1ccc(CCn2c3c(c4cc(C)ccc42)C2CCC(C3)N2C)cc1` (centres unmarked) [Compound 83] are 80%, 98%, 71% and 94%.
